Results taken from publication PMC9151520 (Archives of Toxicology, 2022).
Several values for one entry are separate records, joined by “and”; a condition that tells them apart may be missing. Equal entries are not always repeated. Where two headings read alike, the source gives them in different places.

Key:
[1] = system: p53 signaling (p53RE-bla HCT-116 cells); assay: cells; assay type: cell-based
[2] = system: p53 signaling (p53RE-bla HCT-116 cells)
[3] = system: p53 signaling (p53RE-bla HCT-116 cells); remark: listed apart in the source
[4] = read-out: p53 activation EC50, primary screening
[5] = Homo sapiens, HCT-116, read-out: EC50, p53 activation, primary screening
[6] = Homo sapiens, HCT-116, read-out: Efficacy, p53 activation, primary screening
[7] = Homo sapiens, HCT-116, read-out: p53 activation EC50, primary screening
[8] = Homo sapiens, HCT-116, read-out: p53 activation efficacy, primary screening

SMILES | p53 activation EC50, cherry pick confirmation [1] | p53 activation efficacy, cherry pick confirmation [1] | p53 activation EC50, cherry pick confirmation [2] | p53 activation EC50, primary screening [2] | p53 activation efficacy, cherry pick confirmation [2] | p53 activation efficacy, primary screening [2] | p53 activation EC50, cherry pick confirmation [3] | p53 activation EC50, primary screening [3] | p53 activation efficacy, cherry pick confirmation [3] | p53 activation efficacy, primary screening [3] | Viability EC50, cherry pick confirmation (p53RE-bla HCT-116 cells) | Viability EC50, primary screening (p53RE-bla HCT-116 cells) | Viability efficacy, primary screening (p53RE-bla HCT-116 cells) | EC50, p53 activation, cherry pick confirmation [1] | Efficacy, p53 activation, cherry pick confirmation [1] | EC50, p53 activation, cherry pick confirmation [2] | EC50, p53 activation, primary screening [2] | Efficacy, p53 activation, cherry pick confirmation [2] | Efficacy, p53 activation, primary screening [2] | Viability efficacy, cherry pick confirmation (p53RE-bla HCT-116 cells) | other results
COc1ccc(C(=O)/C(Br)=C\C(=O)[O-])cc1.[Na+] [Cytembena] | inactive | inactive | inactive | inactive | inactive | inactive | inactive | inactive | inactive | inactive | inactive | inactive | inactive |  |  |  |  |  |  |  | p53 activation efficacy, primary screening [1]: 55.202; EC50 [1, 4]: 21 µM; EC50 (p53RE-bla HCT-116 cells; read-out: Viability EC50, cherry pick confirmation): 43.2 µM
CCS(=O)(=O)CCSP(=O)(OC)OC [Demeton-S-methylsulphon] |  |  |  |  |  |  |  |  |  |  |  |  |  |  |  |  |  |  |  |  | p53 activation EC50 [1]: inactive; p53 activation efficacy [1]: inactive; EC50 [2]: 11.8 µM; p53 activation efficacy [2]: 41.936 and 34.343; p53 activation EC50 [3]: inactive; Viability EC50 (p53RE-bla HCT-116 cells): inactive; Viability efficacy (p53RE-bla HCT-116 cells): inactive
CCC[CH2][Sn]([Cl])([Cl])[CH2]CCC [Dibutyltin dichloride] |  |  |  |  |  |  |  |  |  |  |  |  |  | inactive | inactive | inactive | inactive | inactive | inactive |  | Efficacy, p53 activation, primary screening [1]: 73.9367; EC50 ([1]; read-out: EC50, p53 activation, primary screening): 27.1 µM; EC50, p53 activation, cherry pick confirmation [3]: inactive; EC50, p53 activation, primary screening [3]: inactive; Efficacy, p53 activation, cherry pick confirmation [3]: inactive; Efficacy, p53 activation, primary screening [3]: inactive; EC50, viability, primary screening (p53RE-bla HCT-116 cells): inactive
O=C(O)Cc1ccccc1Nc1c(Cl)cccc1Cl [Diclofenac sodium] |  |  |  |  |  |  |  |  |  |  |  |  |  | inactive | inactive | inactive | inactive | inactive | inactive |  | EC50 [1, 5]: 51.3 µM; Emax [1, 6]: 38.2%; EC50, p53 activation, cherry pick confirmation [3]: inactive; EC50, p53 activation, primary screening [3]: inactive; Efficacy, p53 activation, cherry pick confirmation [3]: inactive; Efficacy, p53 activation, primary screening [3]: inactive; EC50, viability, cherry pick confirmation (p53RE-bla HCT-116 cells): inactive; EC50, viability, primary screening (p53RE-bla HCT-116 cells): inactive; Efficacy, viability, cherry pick confirmation (p53RE-bla HCT-116 cells): inactive; Efficacy, viability, primary screening (p53RE-bla HCT-116 cells): inactive
C/C=C(/C(=C/C)c1ccc(O)cc1)c1ccc(O)cc1 [Dienestrol] |  |  | inactive | inactive | inactive | inactive | inactive | inactive | inactive | inactive | inactive | inactive | inactive |  |  |  |  |  |  | inactive | EC50 ([1]; Homo sapiens, HCT-116, read-out: p53 activation EC50, cherry pick confirmation): 7.79 µM; EC50 [1, 7]: 7.81 µM; Emax ([1]; Homo sapiens, HCT-116, read-out: p53 activation efficacy, cherry pick confirmation): 36.1%; Emax [1, 8]: 32.6%
CC/C(=C(/CC)c1ccc(O)cc1)c1ccc(O)cc1 [Diethylstilbestrol] | inactive | inactive | inactive | inactive | inactive | inactive | inactive | inactive | inactive | inactive | inactive | inactive |  |  |  |  |  |  |  | inactive | Emax [1, 8]: 42.5%
CCC(C)c1cc([N+](=O)[O-])cc([N+](=O)[O-])c1OC(=O)OC(C)C (centres unmarked) [Dinobuton] | inactive | inactive | inactive | inactive | inactive | inactive | inactive | inactive | inactive | inactive | inactive | inactive | inactive |  |  |  |  |  |  | inactive | EC50 [1, 7]: 49.5 µM; Emax [1, 8]: 74.7%
O=S(=O)(O)c1ccccc1C=Cc1ccc(-c2ccc(C=Cc3ccccc3S(=O)(=O)O)cc2)cc1.[Na].[Na] [Disodium 4,4'-bis(2-sulfostyryl)biphenyl] |  |  |  |  |  |  |  |  |  |  |  |  |  |  |  |  |  |  |  |  | activity outcome in p53-bla assay [1]: also active in the absence of microsomes; p53 activation Efficacy, No MS [1]: 37.8243% and 32.5267%; EC50 ([1]; read-out: p53 activation EC50, No MS): 25.3 µM and 34.2 µM; EC50 [2]: 29.8 µM; EC50 ([2]; read-out: p53 activation EC50, RLM): 29.8 µM and 24.9 µM; activity outcome in p53-bla assay [3]: active; EC50 ([3]; read-out: p53 activation EC50, HLM): 18.8 µM and 28.2 µM; Viability EC50, HLM (p53RE-bla HCT-116 cells): inactive; Viability EC50, No MS (p53RE-bla HCT-116 cells): inactive; Viability EC50, RLM (p53RE-bla HCT-116 cells): inactive; Viability Efficacy, HLM (p53RE-bla HCT-116 cells): inactive; Viability Efficacy, No MS (p53RE-bla HCT-116 cells): inactive; Viability Efficacy, RLM (p53RE-bla HCT-116 cells): inactive
C[C@H]1O[C@@H](n2cc(F)c(=O)[nH]c2=O)[C@H](O)[C@@H]1O [Doxifluridine] |  |  |  |  |  |  |  |  |  |  |  |  |  | inactive | inactive | inactive | inactive | inactive | inactive |  | EC50 [1, 5]: 10.6 µM; Emax [1, 6]: 83.9%; EC50, p53 activation, cherry pick confirmation [3]: inactive; EC50, p53 activation, primary screening [3]: inactive; Efficacy, p53 activation, cherry pick confirmation [3]: inactive; Efficacy, p53 activation, primary screening [3]: inactive; EC50, viability, cherry pick confirmation (p53RE-bla HCT-116 cells): inactive; EC50, viability, primary screening (p53RE-bla HCT-116 cells): inactive; Efficacy, viability, cherry pick confirmation (p53RE-bla HCT-116 cells): inactive; Efficacy, viability, primary screening (p53RE-bla HCT-116 cells): inactive
CC(O)C(=O)O.CCOc1ccc2nc3cc(N)ccc3c(N)c2c1.O [Ethacridine lactate hydrate] |  | 145.785 | inactive | inactive | inactive | inactive | inactive | inactive | inactive | inactive | inactive | inactive | inactive |  |  |  |  |  |  | inactive | p53 activation efficacy, primary screening [1]: 113.254; EC50 ([1]; read-out: p53 activation EC50, cherry pick confirmation): 19.1 µM; EC50 [1, 4]: 21.5 µM
